Reference: patent US10301320B2, “Compositions and methods of modulating 15-PGDH activity” (CASE WESTERN RESERVE UNIVERSITY, priority 2012, dated 2019)
“Also recorded” adds a separate entry of the source.

Key:
C57BL/6J mice [1] = experiment: Survival after 11 Gy irradiation and bone marrow allograft; assay type: in vivo
Text: The experimental design is depicted in FIG. 50.
Under the conditions of the mouse colony during this study, control mice receiving 100,000-500,000 cells are all dead between days 4-13 of study. […] Such activity would be of particular utility in settings, such as transplantation with umbilical cord stem cells, in which donor cell numbers are limited.

Hepatocyte stability = assay type: in vitro ADME; conditions: result in words
Protocol: (§1) Time to inhibition refers to the time needed to inhibit the generation of NADH by 15-PGDH from the moment with drug is added into the reaction mix. Delta™ refers to the shift in melting temperature of recombinant 15-PGDH in the presence of drug (with cofactor NADH also present). Concentration of Full Cell Line Reporter Induction refers to the concentration of drug that needs to be added to reporter cell line to achieve maximal induction of the 15-PGDH-luciferase gene fusion reporter cassette, as measured by luciferase assays. Hepatocyte stability refers to the half-life of compound in the presence of hepatocytes in culture. Toxicity refers to the concentration of compound needed to decrease cell numbers in a cell culture assay.

C57BL/6J mice [2] = experiment: Survival after whole body irradiation; assay type: in vivo
A549 cells [3] = experiment: Cellular toxicity on A549 cells (CellTiter-Glo, cell numbers); assay type: cell-based
Protocol: as §1
FIGS. 38(A-C) show assays of cellular toxicity on A549 cells at 24 hours of 15-PGDH inhibitors as assayed by CellTiter-Glo measurement.
FIGS. 84(A-C) show at left (84A) activity in lowering PGE2 levels in media of A549 cells that are stimulated to produce PGE2 by treatment with IL1-beta.

[4] = system: 15-PGDH-luciferase fusion reporter in V9m, LS174T and V503 cell lines; experiment: 15-PGDH-luciferase fusion gene reporter induction in three colon cancer cell lines (stated jointly); assay type: cell-based
A549 cells [5] = experiment: PGE2 levels in medium of IL1-beta stimulated A549 cells; assay type: cell-based
FVB male mice = experiment: Dextran sodium sulfate (DSS) induced colitis; assay type: in vivo
[6] = system: 15-PGDH mRNA in colon cancer cell lines; experiment: 15-PGDH mRNA levels by real-time PCR; assay type: cell-based
Text: In these studies parental cell lines (not containing the 15-PGDH-luciferase reporter) are employed.

CCCC[S+]([O-])c1sc2nc(-c3cccs3)cc(-c3ccccc3)c2c1N (centres unmarked) [SW033291, 2-(butylsulfinyl)-4-phenyl-6-(thiophen-2-yl)thieno[2,3-b]pyridin-3-amine]
Survival of transplanted mice, in words (C57BL/6J mice [1]; 5 mg/kg IP twice daily): promoted survival of mice receiving a bone marrow transplant
Mouse survival (number of surviving mice) (C57BL/6J mice [1]; 1 × 10^5 cells, Day 1): 3
Mouse survival (number of surviving mice) (C57BL/6J mice [1]; 1 × 10^5 cells, Day 2): 3
Mouse survival (number of surviving mice) (C57BL/6J mice [1]; 1 × 10^5 cells, Day 3): 3
Mouse survival (number of surviving mice) (C57BL/6J mice [1]; 1 × 10^5 cells, Day 4): 2
Mouse survival (number of surviving mice) (C57BL/6J mice [1]; 1 × 10^5 cells, Day 5): 1
Mouse survival (number of surviving mice) (C57BL/6J mice [1]; 1 × 10^5 cells, Day 6): 0
Mouse survival (number of surviving mice) (C57BL/6J mice [1]; 2 × 10^5 cells, Day 1): 3
Mouse survival (number of surviving mice) (C57BL/6J mice [1]; 2 × 10^5 cells, Day 2): 3
Mouse survival (number of surviving mice) (C57BL/6J mice [1]; 2 × 10^5 cells, Day 3): 3
Mouse survival (number of surviving mice) (C57BL/6J mice [1]; 2 × 10^5 cells, Day 4): 3
Mouse survival (number of surviving mice) (C57BL/6J mice [1]; 2 × 10^5 cells, Day 5): 3
Mouse survival (number of surviving mice) (C57BL/6J mice [1]; 2 × 10^5 cells, Day 6): 2
Mouse survival (number of surviving mice) (C57BL/6J mice [1]; 2 × 10^5 cells, Day 7): 2
Mouse survival (number of surviving mice) (C57BL/6J mice [1]; 2 × 10^5 cells, Day 8): 2
Mouse survival (number of surviving mice) (C57BL/6J mice [1]; 2 × 10^5 cells, Day 9): 2
Mouse survival (number of surviving mice) (C57BL/6J mice [1]; 2 × 10^5 cells, Day 10): 2
Mouse survival (number of surviving mice) (C57BL/6J mice [1]; 2 × 10^5 cells, Day 11): 2
Mouse survival (number of surviving mice) (C57BL/6J mice [1]; 2 × 10^5 cells, Day 12): 1
Mouse survival (number of surviving mice) (C57BL/6J mice [1]; 2 × 10^5 cells, Day 13): 0
Mouse survival (number of surviving mice) (C57BL/6J mice [1]; 5 × 10^5 cells, Day 1): 3
Mouse survival (number of surviving mice) (C57BL/6J mice [1]; 5 × 10^5 cells, Day 2): 3
Mouse survival (number of surviving mice) (C57BL/6J mice [1]; 5 × 10^5 cells, Day 3): 3
Mouse survival (number of surviving mice) (C57BL/6J mice [1]; 5 × 10^5 cells, Day 4): 3
Mouse survival (number of surviving mice) (C57BL/6J mice [1]; 5 × 10^5 cells, Day 5): 3
Mouse survival (number of surviving mice) (C57BL/6J mice [1]; 5 × 10^5 cells, Day 6): 3
Mouse survival (number of surviving mice) (C57BL/6J mice [1]; 5 × 10^5 cells, Day 7): 3
Mouse survival (number of surviving mice) (C57BL/6J mice [1]; 5 × 10^5 cells, Day 8): 2
Mouse survival (number of surviving mice) (C57BL/6J mice [1]; 5 × 10^5 cells, Day 9): 2
Mouse survival (number of surviving mice) (C57BL/6J mice [1]; 5 × 10^5 cells, Day 10): 2
Mouse survival (number of surviving mice) (C57BL/6J mice [1]; 5 × 10^5 cells, Day 11): 2
Mouse survival (number of surviving mice) (C57BL/6J mice [1]; 5 × 10^5 cells, Day 12): 2
Mouse survival (number of surviving mice) (C57BL/6J mice [1]; 5 × 10^5 cells, Day 13): 2
Mouse survival (number of surviving mice) (C57BL/6J mice [1]; 5 × 10^5 cells, Day 19): 2
Hepatocyte stability (Hepatocyte stability): Stable > couple hrs
Survival longer than vehicle control (C57BL/6J mice [2]; 11 Gy, 5 mg/kg IP daily for 7 doses): 48 h
Survival longer than vehicle control, on average (C57BL/6J mice [2]; 11 Gy, any of the dosing schedules): 1 to 2 days
Number of mice surviving (C57BL/6J mice [2]; Table 7, 7 Gy, Day 5): 3
Number of mice surviving (C57BL/6J mice [2]; Table 7, 7 Gy, Day 6): 3
Number of mice surviving (C57BL/6J mice [2]; Table 7, 7 Gy, Day 7): 3
Number of mice surviving (C57BL/6J mice [2]; Table 7, 7 Gy, Day 8): 3
Number of mice surviving (C57BL/6J mice [2]; Table 7, 7 Gy, Day 9): 3
Number of mice surviving (C57BL/6J mice [2]; Table 7, 7 Gy, Day 10): 3
Number of mice surviving (C57BL/6J mice [2]; Table 7, 7 Gy, Day 11): 3
Number of mice surviving (C57BL/6J mice [2]; Table 7, 7 Gy, Day 12): 3
Number of mice surviving (C57BL/6J mice [2]; Table 7, 7 Gy, Day 13): 3
Number of mice surviving (C57BL/6J mice [2]; Table 7, 7 Gy, Day 14): 3
Number of mice surviving (C57BL/6J mice [2]; Table 7, 7 Gy, Day 15): 3
Condition of surviving mice (C57BL/6J mice [2]; Table 7, 7 Gy, Day 25 (Looks Healthy)): Healthy
Number of mice surviving (C57BL/6J mice [2]; Table 7, 9 Gy, Day 5): 3
Number of mice surviving (C57BL/6J mice [2]; Table 7, 9 Gy, Day 6): 3
Number of mice surviving (C57BL/6J mice [2]; Table 7, 9 Gy, Day 7): 3
Number of mice surviving (C57BL/6J mice [2]; Table 7, 9 Gy, Day 8): 3
Number of mice surviving (C57BL/6J mice [2]; Table 7, 9 Gy, Day 9): 3
Number of mice surviving (C57BL/6J mice [2]; Table 7, 9 Gy, Day 10): 3
Number of mice surviving (C57BL/6J mice [2]; Table 7, 9 Gy, Day 11): 3
Number of mice surviving (C57BL/6J mice [2]; Table 7, 9 Gy, Day 12): 2
Number of mice surviving (C57BL/6J mice [2]; Table 7, 9 Gy, Day 13): 2
Number of mice surviving (C57BL/6J mice [2]; Table 7, 9 Gy, Day 14): 1
Number of mice surviving (C57BL/6J mice [2]; Table 7, 9 Gy, Day 15): 0
Number of mice surviving (C57BL/6J mice [2]; Table 7, 11 Gy, Day 5): 3
Number of mice surviving (C57BL/6J mice [2]; Table 7, 11 Gy, Day 6): 3
Number of mice surviving (C57BL/6J mice [2]; Table 7, 11 Gy, Day 7): 3
Number of mice surviving (C57BL/6J mice [2]; Table 7, 11 Gy, Day 8): 3
Number of mice surviving (C57BL/6J mice [2]; Table 7, 11 Gy, Day 9): 2
Number of mice surviving (C57BL/6J mice [2]; Table 7, 11 Gy, Day 10): 0
Number of mice surviving (C57BL/6J mice [2]; Table 8, 11 Gy, 1 dose daily for 7 days, Day 5): 3
Number of mice surviving (C57BL/6J mice [2]; Table 8, 11 Gy, 1 dose daily for 7 days, Day 6): 3
Number of mice surviving (C57BL/6J mice [2]; Table 8, 11 Gy, 1 dose daily for 7 days, Day 7): 3
Number of mice surviving (C57BL/6J mice [2]; Table 8, 11 Gy, 1 dose daily for 7 days, Day 8): 2
Number of mice surviving (C57BL/6J mice [2]; Table 8, 11 Gy, 1 dose daily for 7 days, Day 9): 1
Number of mice surviving (C57BL/6J mice [2]; Table 8, 11 Gy, 1 dose daily for 7 days, Day 10): 0
Number of mice surviving (C57BL/6J mice [2]; Table 8, 11 Gy, 1 dose daily, continuous every day, Day 5): 3
Number of mice surviving (C57BL/6J mice [2]; Table 8, 11 Gy, 1 dose daily, continuous every day, Day 6): 3
Number of mice surviving (C57BL/6J mice [2]; Table 8, 11 Gy, 1 dose daily, continuous every day, Day 7): 3
Number of mice surviving (C57BL/6J mice [2]; Table 8, 11 Gy, 1 dose daily, continuous every day, Day 8): 3
Number of mice surviving (C57BL/6J mice [2]; Table 8, 11 Gy, 1 dose daily, continuous every day, Day 9): 2
Number of mice surviving (C57BL/6J mice [2]; Table 8, 11 Gy, 1 dose daily, continuous every day, Day 10): 0
Number of mice surviving (C57BL/6J mice [2]; Table 8, 11 Gy, 7 days, 2 dose daily, Day 5): 3
Number of mice surviving (C57BL/6J mice [2]; Table 8, 11 Gy, 7 days, 2 dose daily, Day 6): 3
Number of mice surviving (C57BL/6J mice [2]; Table 8, 11 Gy, 7 days, 2 dose daily, Day 7): 3
Number of mice surviving (C57BL/6J mice [2]; Table 8, 11 Gy, 7 days, 2 dose daily, Day 8): 3
Number of mice surviving (C57BL/6J mice [2]; Table 8, 11 Gy, 7 days, 2 dose daily, Day 9): 2
Number of mice surviving (C57BL/6J mice [2]; Table 8, 11 Gy, 7 days, 2 dose daily, Day 10): 0
Toxicity, CellTiter-Glo (A549 cells [3]; 24 hours, up to 10 uM in FIG. 38): No effect on CellTitre-Glo levels
Toxicity (A549 cells [3]; concentration needed to decrease cell numbers in a cell culture assay): >10 µM
Induction of 15-PGDH-luciferase reporter, in words [4]: increase luciferase activity
PGE2 levels in the medium, ranking (A549 cells [5]; 100 nM drug, 15-PGDH inhibitors): next highest level of PGE2
Effect on PGE2 levels in medium, in words (A549 cells [5]; IL1-beta stimulated A549 cells): clear inhibition of 15-PGDH activity
PGE2 levels achieved (A549 cells [5]; IL-1β 16 h, compound 8 h, highest level of titration): 3000 pg/mL
Body weight versus control, in words (FVB male mice; 5 mg/kg IP twice daily): greater weight at all time points; also recorded: greater body weight
Ulcer formation (FVB male mice; colonoscopy days 8, 11, 15): prevents two-thirds of ulcer formation
Colon length versus control, in words (FVB male mice; day 22): greater colon lengths
15-PGDH mRNA levels ([6]; V503 cells): slight increase in 15-PGDH mRNA
15-PGDH mRNA levels ([6]; treated colon cancer cell lines, real-time PCR): do not in general alter 15-PGDH mRNA levels
